Test results from PMC7917164 (Bioorganic & medicinal chemistry, 2020).
Where a name gives a salt, the structure may show the parent alone.

System: Aβ42 levels (γ-secretase modulation) in SHSY5Y-APP cells
Experiment: Cell-based ELISA assay for measuring extracellular Aβ42 levels
Set-up: species or system human
Details: for Loss in activity (Aβ42) versus the parent fluorophenyl compound: ratio of Aβ42 IC50 values

Compound: COc1nc(-c2csc(Nc3c4c(nn3CC(C)(C)O)CCCC4)n2)ccc1-n1cnc(C)c1 [Compound 51, 1-(3-((4-(6-methoxy-5-(4-methyl-1H-imidazol-1-yl)pyridin-2-yl)thiazol-2-yl)amino)-4,5,6,7-tetrahydro-2H-indazol-2-yl)-2-methylpropan-2-ol]
- Parent Aβ42 IC50: 55 nM

Compound: COc1nc(-c2csc(Nc3c4c(nn3CCO)CCCC4)n2)ccc1-n1cnc(C)c1 [Compound 49, 2-(3-((4-(6-methoxy-5-(4-methyl-1H-imidazol-1-yl)pyridin-2-yl)thiazol-2-yl)amino)-4,5,6,7-tetrahydro-2H-indazol-2-yl)ethanol]
- Parent Aβ42 IC50: 362 nM

Compound: COc1nc(-c2csc(Nc3c4c(nn3C(C)(C)C)CCCC4)n2)ccc1-n1cnc(C)c1 [Compound 36, N-(2-(tert-butyl)-4,5,6,7-tetrahydro-2H-indazol-3-yl)-4-(6-methoxy-5-(4-methyl-1H-imidazol-1-yl)pyridin-2-yl)thiazol-2-amine]
- Parent Aβ42 IC50: 216 nM

Compound: COc1nc(-c2csc(Nc3c4c(nn3C3CCCC3)CCCC4)n2)ccc1-n1cnc(C)c1 [Compound 38, N-(2-cyclopentyl-4,5,6,7-tetrahydro-2H-indazol-3-yl)-4-(6-methoxy-5-(4-methyl-1H-imidazol-1-yl)pyridin-2-yl)thiazol-2-amine]
- Parent Aβ42 IC50: 225 nM

Compound: COc1nc(-c2csc(Nc3c4c(nn3C3CCC3)CCCC4)n2)ccc1-n1cnc(C)c1 [Compound 37, N-(2-cyclobutyl-4,5,6,7-tetrahydro-2H-indazol-3-yl)-4-(6-methoxy-5-(4-methyl-1H-imidazol-1-yl)pyridin-2-yl)thiazol-2-amine]
- Parent Aβ42 IC50: 99 nM

Compound: CCn1nc(C(C)C)cc1Nc1nc(-c2ccc(-n3cnc(C)c3)c(OC)n2)cs1 [Compound 58, N-(1-ethyl-3-isopropyl-1H-pyrazol-5-yl)-4-(6-methoxy-5-(4-methyl-1H-imidazol-1-yl)pyridin-2-yl)thiazol-2-amine]
- Parent Aβ42 IC50: 394 nM

Compound: COc1nc(-c2csc(Nc3c4c(nn3CCCO)CCCC4)n2)ccc1-n1cnc(C)c1 [Compound 50, 3-(3-((4-(6-methoxy-5-(4-methyl-1H-imidazol-1-yl)pyridin-2-yl)thiazol-2-yl)amino)-4,5,6,7-tetrahydro-2H-indazol-2-yl)propan-1-ol]
- Parent Aβ42 IC50: 229 nM

Compound: COc1nc(-c2csc(Nc3c4c(nn3C3CCCCC3)CCCC4)n2)ccc1-n1cnc(C)c1 [Compound 39, N-(2-cyclohexyl-4,5,6,7-tetrahydro-2H-indazol-3-yl)-4-(6-methoxy-5-(4-methyl-1H-imidazol-1-yl)pyridin-2-yl)thiazol-2-amine]
- Parent Aβ42 IC50: 280 nM

Compound: COc1nc(-c2csc(Nc3c4c(nn3CC(F)(F)F)CCCC4)n2)ccc1-n1cnc(C)c1 [Compound 47, 4-(6-methoxy-5-(4-methyl-1H-imidazol-1-yl)pyridin-2-yl)-N-(2-(2,2,2-trifluoroethyl)-4,5,6,7-tetrahydro-2H-indazol-3-yl)thiazol-2-amine]
- Parent Aβ42 IC50: 179 nM

Compound: COc1nc(-c2csc(Nc3c4c(nn3CCN3CCCCC3)CCCC4)n2)ccc1-n1cnc(C)c1 [Compound 43, 4-(6-methoxy-5-(4-methyl-1H-imidazol-1-yl)pyridin-2-yl)-N-(2-(2-(piperidin-1-yl)ethyl)-4,5,6,7-tetrahydro-2H-indazol-3-yl)thiazol-2-amine]
- Parent Aβ42 IC50: 475 nM

Compound: COc1nc(-c2csc(Nc3c4c(nn3CCCN3CCOCC3)CCCC4)n2)ccc1-n1cnc(C)c1 [Compound 45, 4-(6-methoxy-5-(4-methyl-1H-imidazol-1-yl)pyridin-2-yl)-N-(2-(3-morpholinopropyl)-4,5,6,7-tetrahydro-2H-indazol-3-yl)thiazol-2-amine]
- Parent Aβ42 IC50: 270 nM

Compound: COc1nc(-c2csc(Nc3c4c(nn3CC(F)(F)F)CCC4)n2)ccc1-n1cnc(C)c1 [Compound 69, 4-(6-methoxy-5-(4-methyl-1H-imidazol-1-yl)pyridin-2-yl)-N-(2-(2,2,2-trifluoroethyl)-2,4,5,6-tetrahydrocyclopenta[c]pyrazol-3-yl)thiazol-2-amine]
- Parent Aβ42 IC50: 94 nM

Compound: COc1nc(-c2csc(Nc3c4c(nn3CCO)CCC4)n2)ccc1-n1cnc(C)c1 [Compound 70, 2-(3-((4-(6-methoxy-5-(4-methyl-1H-imidazol-1-yl)pyridin-2-yl)thiazol-2-yl)amino)-5,6-dihydrocyclopenta[c]pyrazol-2(4H)-yl)ethanol]
- Parent Aβ42 IC50: >1000 nM

Compound: CCCn1nc(C(C)(C)C)cc1Nc1nc(-c2ccc(-n3cnc(C)c3)c(OC)n2)cs1 [Compound 53, N-(3-(tert-butyl)-1-propyl-1H-pyrazol-5-yl)-4-(6-methoxy-5-(4-methyl-1H-imidazol-1-yl)pyridin-2-yl)thiazol-2-amine dihydrochloride]
- Parent Aβ42 IC50: 86 nM

Compound: COc1nc(-c2csc(Nc3cc(C(F)(F)F)nn3C(C)(C)C)n2)ccc1-n1cnc(C)c1 [Compound 61, N-(1-(tert-butyl)-3-(trifluoromethyl)-1H-pyrazol-5-yl)-4-(6-methoxy-5-(4-methyl-1H-imidazol-1-yl)pyridin-2-yl)thiazol-2-amine]
- Parent Aβ42 IC50: 121 nM

Compound: CCn1nc2c(c1Nc1nc(-c3ccc(-n4cnc(C)c4)c(OC)n3)cs1)CCCCC2 [Compound 73, N-(2-ethyl-2,4,5,6,7,8-hexahydrocyclohepta[c]pyrazol-3-yl)-4-(6-methoxy-5-(4-methyl-1H-imidazol-1-yl)pyridin-2-yl)thiazol-2-amine]
- Parent Aβ42 IC50: 114 nM

Compound: CCn1nc(C(C)(C)C)cc1Nc1nc(-c2ccc(-n3cnc(C)c3)cc2)cs1 [Compound 33a]
- Loss in activity (Aβ42) versus the parent fluorophenyl compound: greater than 2 fold

Compound: COc1nc(-c2csc(Nc3c4c(nn3C(C)C)CCC4)n2)ccc1-n1cnc(C)c1 [Compound 65, N-(2-isopropyl-2,4,5,6-tetrahydrocyclopenta[c]pyrazol-3-yl)-4-(6-methoxy-5-(4-methyl-1H-imidazol-1-yl)pyridin-2-yl)thiazol-2-amine]
- Parent Aβ42 IC50: 66 nM

Compound: COc1nc(-c2csc(Nc3c4c(nn3C(C)C)CCCC4)n2)ccc1-n1cnc(C)c1 [Compound 35, N-(2-isopropyl-4,5,6,7-tetrahydro-2H-indazol-3-yl)-4-(6-methoxy-5-(4-methyl-1H-imidazol-1-yl)pyridin-2-yl)thiazol-2-amine]
- Parent Aβ42 IC50: 195 nM

Compound: COc1nc(-c2csc(Nc3cc(C(C)(C)C)nn3C(C)C)n2)ccc1-n1cnc(C)c1 [Compound 54, N-(3-(tert-butyl)-1-isopropyl-1H-pyrazol-5-yl)-4-(6-methoxy-5-(4-methyl-1H-imidazol-1-yl)pyridine-2-yl)thiazol-2-amine]
- Parent Aβ42 IC50: 87 nM

Compound: COc1nc(-c2csc(Nc3c4c(nn3C3CCC3)CCC4)n2)ccc1-n1cnc(C)c1 [Compound 67, N-(2-cyclobutyl-2,4,5,6-tetrahydrocyclopenta[c]pyrazol-3-yl)-4-(6-methoxy-5-(4-methyl-1H-imidazol-1-yl)pyridin-2-yl)thiazol-2-amine]
- Parent Aβ42 IC50: 92 nM

Compound: CCn1nc2c(c1Nc1nc(-c3ccc(-n4cnc(C)c4)cc3)cs1)CCCC2 [Compound 22a]
- Loss in activity (Aβ42) versus the parent fluorophenyl compound: greater than 4 fold

Compound: Cc1cn(-c2ccc(-c3csc(Nc4c5c(nn4C)CCCC5)n3)cc2)cn1 [Compound 31a]
- Loss in activity (Aβ42) versus the parent fluorophenyl compound: greater than 2 fold

Compound: CCn1nc2c(c1Nc1nc(-c3ccc(-n4cnc(C)c4)c(OC)n3)cs1)CCC2(C)C [Compound 71, N-(2-ethyl-6,6-dimethyl-2,4,5,6-tetrahydrocyclopenta[c]pyrazol-3-yl)-4-(6-methoxy-5-(4-methyl-1H-imidazol-1-yl)pyridin-2-yl)thiazol-2-amine]
- Parent Aβ42 IC50: 62 nM

Compound: COc1nc(-c2csc(Nc3c4c(nn3C(C)(C)C)CCC4)n2)ccc1-n1cnc(C)c1 [Compound 66, N-(2-(tert-butyl)-2,4,5,6-tetrahydrocyclopenta[c]pyrazol-3-yl)-4-(6-methoxy-5-(4-methyl-1H-imidazol-1-yl)pyridin-2-yl)thiazol-2-amine]
- Parent Aβ42 IC50: 175 nM

Compound: CCn1nccc1Nc1nc(-c2ccc(-n3cnc(C)c3)c(OC)n2)cs1 [Compound 74, N-(1-ethyl-1H-pyrazol-5-yl)-4-(6-methoxy-5-(4-methyl-1H-imidazol-1-yl)pyridin-2-yl)thiazol-2-amine]
- Parent Aβ42 IC50: >1000 nM

Compound: COc1nc(-c2csc(Nc3c4c(nn3CCN3CCOCC3)CCCC4)n2)ccc1-n1cnc(C)c1 [Compound 44, 4-(6-methoxy-5-(4-methyl-1H-imidazol-1-yl)pyridin-2-yl)-N-(2-(2-morpholinoethyl)-4,5,6,7-tetrahydro-2H-indazol-3-yl)thiazol-2-amine trihydrochloride]
- Parent Aβ42 IC50: >1000 nM

Compound: COc1nc(-c2csc(Nc3cc(C(C)(C)C)nn3CC(F)(F)F)n2)ccc1-n1cnc(C)c1 [Compound 57, N-(3-(tert-butyl)-1-(2,2,2-trifluoroethyl)-1H-pyrazol-5-yl)-4-(6-methoxy-5-(4-methyl-1H-imidazol-1-yl)pyridin-2-yl)thiazol-2-amine]
- Parent Aβ42 IC50: 87 nM

Compound: CCCn1nc2c(c1Nc1nc(-c3ccc(-n4cnc(C)c4)c(OC)n3)cs1)CCCC2 [Compound 34, 4-(6-methoxy-5-(4-methyl-1H-imidazol-1-yl)pyridin-2-yl)-N-(2-propyl-4,5,6,7-tetrahydro-2H-indazol-3-yl)thiazol-2-amine]
- Parent Aβ42 IC50: 148 nM

Compound: COc1nc(-c2csc(Nc3cc(C(F)(F)F)nn3CC(F)(F)F)n2)ccc1-n1cnc(C)c1 [Compound 62, 4-(6-methoxy-5-(4-methyl-1H-imidazol-1-yl)pyridin-2-yl)-N-(1-(2,2,2-trifluoroethyl)-3-(trifluoromethyl)-1H-pyrazol-5-yl)thiazol-2-amine]
- Parent Aβ42 IC50: 771 nM

Compound: COc1nc(-c2csc(Nc3c4c(nn3C3CCOC3)CCCC4)n2)ccc1-n1cnc(C)c1 (racemic) [Compound 40, (+/−)-4-(6-methoxy-5-(4-methyl-1H-imidazol-1-yl)pyridin-2-yl)-N-(2-(tetrahydrofuran-3-yl)-4,5,6,7-tetrahydro-2H-indazol-3-yl)thiazol-2-amine]
- Parent Aβ42 IC50: 289 nM

Compound: COc1nc(-c2csc(Nc3c4c(nn3C3CCN(C)CC3)CCCC4)n2)ccc1-n1cnc(C)c1 [Compound 42, 4-(6-methoxy-5-(4-methyl-1H-imidazol-1-yl)pyridin-2-yl)-N-(2-(1-methylpiperidin-4-yl)-4,5,6,7-tetrahydro-2H-indazol-3-yl)thiazol-2-amine]
- Parent Aβ42 IC50: >1000 nM
